PubChem BioAssay (NCI)
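Test compounds were applied to cells in 96-well plates for 48 hours at 5 doses. GI50 marks 50% less growth. The concentration for full growth arrest is given as TGI.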

What was measured:
Assay in all cases: inhibition of tumour cell growth, NCI panel, 48 h
U251 CNS = system: U251 CNS
SNB-19 CNS = system: SNB-19 CNS
NCI-H522 lung = system: NCI-H522 lung
HS 578T breast = system: HS 578T breast
HOP-92 NSCLC = system: HOP-92 NSCLC
NCI/ADR-RES ovarian = system: NCI/ADR-RES ovarian
HL-60(TB) leukemia = system: HL-60(TB) leukemia
A498 renal = system: A498 renal
SF-539 CNS = system: SF-539 CNS
K-562 leukemia = system: K-562 leukemia
DU-145 prostate = system: DU-145 prostate
COLO 205 colon = system: COLO 205 colon
SK-MEL-5 melanoma = system: SK-MEL-5 melanoma
HCT-116 colon = system: HCT-116 colon
PC-3 prostate = system: PC-3 prostate
MCF7 breast = system: MCF7 breast
SR leukemia = system: SR leukemia
SNB-75 CNS = system: SNB-75 CNS
LOX IMVI melanoma = system: LOX IMVI melanoma
RPMI-8226 leukemia = system: RPMI-8226 leukemia
BT-549 breast = system: BT-549 breast
TK-10 renal = system: TK-10 renal
UO-31 renal = system: UO-31 renal
MDA-MB-435 = system: MDA-MB-435
NCI-H226 lung = system: NCI-H226 lung
786-0 renal = system: 786-0 renal
HCT-15 colon = system: HCT-15 colon
SK-MEL-28 melanoma = system: SK-MEL-28 melanoma
M14 melanoma = system: M14 melanoma
SF-268 CNS = system: SF-268 CNS
A549 NSCLC = system: A549 NSCLC
SK-MEL-2 melanoma = system: SK-MEL-2 melanoma
ACHN renal = system: ACHN renal
UACC-62 melanoma = system: UACC-62 melanoma
IGROV1 ovarian = system: IGROV1 ovarian
OVCAR-3 ovarian = system: OVCAR-3 ovarian
HOP-62 NSCLC = system: HOP-62 NSCLC
NCI-H23 lung = system: NCI-H23 lung
OVCAR-4 ovarian = system: OVCAR-4 ovarian
EKVX NSCLC = system: EKVX NSCLC
MDA-MB-231 breast = system: MDA-MB-231 breast
SF-295 CNS = system: SF-295 CNS
OVCAR-5 ovarian = system: OVCAR-5 ovarian
SK-OV-3 ovarian = system: SK-OV-3 ovarian
KM12 colon = system: KM12 colon
CAKI-1 renal = system: CAKI-1 renal
OVCAR-8 ovarian = system: OVCAR-8 ovarian
NCI-H460 lung = system: NCI-H460 lung
HT29 colon = system: HT29 colon
HCC-2998 colon = system: HCC-2998 colon
RXF 393 renal = system: RXF 393 renal
SN12C renal = system: SN12C renal
CCRF-CEM leukemia = system: CCRF-CEM leukemia
MOLT-4 leukemia = system: MOLT-4 leukemia
SW-620 colon = system: SW-620 colon
UACC-257 melanoma = system: UACC-257 melanoma
MALME-3M melanoma = system: MALME-3M melanoma

## CCn1c2ccccc2c2cc(C(O)c3cccc4ncccc34)ccc21 (stereo not drawn)
U251 CNS
  GI50: 0.0411 µM
  TGI: 3.56 µM
SNB-19 CNS
  GI50: 0.0437 µM
  TGI: 34.7 µM
NCI-H522 lung
  GI50: 0.0212 µM
  TGI: 0.107 µM
HS 578T breast
  GI50: 0.0505 µM
  TGI: 23.5 µM
HOP-92 NSCLC
  GI50: 0.0324 µM
  TGI: 4.98 µM
NCI/ADR-RES ovarian
  GI50: 0.0396 µM
  TGI: 13.7 µM
HL-60(TB) leukemia
  GI50: 0.0279 µM
  TGI: 0.0787 µM
A498 renal
  GI50: 0.0251 µM
  TGI: 0.267 µM
SF-539 CNS
  GI50: 0.0346 µM
  TGI: 0.224 µM
K-562 leukemia
  GI50: 0.0389 µM
  TGI: 10.9 µM
DU-145 prostate
  GI50: 0.0828 µM
  TGI: 4.78 µM
COLO 205 colon
  GI50: 0.0427 µM
  TGI: 0.251 µM
SK-MEL-5 melanoma
  GI50: 0.0465 µM
  TGI: 1.57 µM
HCT-116 colon
  GI50: 0.0441 µM
  TGI: 15.4 µM
PC-3 prostate
  GI50: 0.0413 µM
  TGI: > 85.7 µM
MCF7 breast
  GI50: 0.0331 µM
  TGI: 20.2 µM
SR leukemia
  GI50: 0.0248 µM
SNB-75 CNS
  GI50: 0.0254 µM
  TGI: 34.1 µM
LOX IMVI melanoma
  GI50: 0.0631 µM
  TGI: 13.4 µM
RPMI-8226 leukemia
  GI50: 0.0724 µM
  TGI: 7.85 µM
BT-549 breast
  GI50: 0.0702 µM
  TGI: 15.6 µM
TK-10 renal
  GI50: 3.7 µM
  TGI: > 78.6 µM
UO-31 renal
  GI50: 0.285 µM
  TGI: > 100 µM
MDA-MB-435
  GI50: 0.0215 µM
  TGI: 0.06 µM
NCI-H226 lung
  GI50: 0.831 µM
  TGI: 46.8 µM
786-0 renal
  GI50: 0.0559 µM
  TGI: 7.29 µM
HCT-15 colon
  GI50: 0.0409 µM
  TGI: 12.1 µM
SK-MEL-28 melanoma
  GI50: 3.47 µM
  TGI: > 100 µM
M14 melanoma
  GI50: 0.0468 µM
  TGI: > 100 µM
SF-268 CNS
  GI50: 0.068 µM
  TGI: > 73.6 µM
A549 NSCLC
  GI50: 0.0684 µM
  TGI: > 49.4 µM
SK-MEL-2 melanoma
  GI50: 0.0543 µM
  TGI: 39.4 µM
ACHN renal
  GI50: 0.0715 µM
  TGI: 41.9 µM
UACC-62 melanoma
  GI50: 0.0443 µM
  TGI: 2.32 µM
IGROV1 ovarian
  GI50: 0.174 µM
  TGI: > 100 µM
OVCAR-3 ovarian
  GI50: 0.0422 µM
  TGI: 39.9 µM
HOP-62 NSCLC
  GI50: 0.0507 µM
  TGI: > 73.3 µM
NCI-H23 lung
  GI50: 0.0958 µM
  TGI: 19.5 µM
OVCAR-4 ovarian
  GI50: 0.318 µM
  TGI: 87.3 µM
EKVX NSCLC
  GI50: 0.0864 µM
  TGI: > 100 µM
MDA-MB-231 breast
  GI50: 0.128 µM
  TGI: 11.4 µM
SF-295 CNS
  GI50: 0.0335 µM
  TGI: 22.1 µM
OVCAR-5 ovarian
  GI50: 3.25 µM
  TGI: > 100 µM
SK-OV-3 ovarian
  GI50: 0.0545 µM
  TGI: > 100 µM
KM12 colon
  GI50: 0.0421 µM
  TGI: 6.56 µM
CAKI-1 renal
  GI50: 0.0425 µM
  TGI: > 100 µM
OVCAR-8 ovarian
  GI50: 0.122 µM
  TGI: > 69.4 µM
NCI-H460 lung
  GI50: 0.0388 µM
  TGI: 4.61 µM
HT29 colon
  GI50: 0.0357 µM
  TGI: 1.66 µM
HCC-2998 colon
  GI50: 0.257 µM
  TGI: 15.7 µM
RXF 393 renal
  GI50: 0.0518 µM
SN12C renal
  GI50: 0.0591 µM
  TGI: 6.24 µM
CCRF-CEM leukemia
  GI50: 0.0484 µM
  TGI: > 100 µM
MOLT-4 leukemia
  GI50: 0.0633 µM
  TGI: > 100 µM
SW-620 colon
  GI50: 0.0399 µM
  TGI: > 100 µM

## N#Cc1c(N2CCOCC2)[nH]c(=O)c(C(c2c(Cl)cccc2Cl)c2c(O)c(C#N)c(N3CCOCC3)[nH]c2=O)c1O
U251 CNS
  TGI: 30.4 µM
SNB-19 CNS
  TGI: 29.6 µM
NCI-H522 lung
  TGI: 28.2 µM
HS 578T breast
  TGI: 58.1 µM
HOP-92 NSCLC
  TGI: 37.8 µM
NCI/ADR-RES ovarian
  TGI: > 100 µM
HL-60(TB) leukemia
  TGI: 29.3 µM
A498 renal
  TGI: > 100 µM
SF-539 CNS
  TGI: 34.9 µM
K-562 leukemia
  TGI: 23.2 µM
DU-145 prostate
  TGI: 69.2 µM
COLO 205 colon
  TGI: 26.7 µM
SK-MEL-5 melanoma
  TGI: 35.4 µM
HCT-116 colon
  TGI: > 100 µM
PC-3 prostate
  TGI: 37.7 µM
MCF7 breast
  TGI: 34.2 µM
SR leukemia
  TGI: 26.3 µM
LOX IMVI melanoma
  TGI: 25.6 µM
RPMI-8226 leukemia
  TGI: 60.8 µM
BT-549 breast
  TGI: 32.8 µM
TK-10 renal
  TGI: 32.5 µM
UO-31 renal
  TGI: 33.5 µM
MDA-MB-435
  TGI: 30.2 µM
NCI-H226 lung
  TGI: 37.5 µM
786-0 renal
  TGI: > 100 µM
HCT-15 colon
  TGI: 28.2 µM
SK-MEL-28 melanoma
  TGI: 32.9 µM
M14 melanoma
  TGI: 42.9 µM
SF-268 CNS
  TGI: 51.1 µM
A549 NSCLC
  TGI: > 100 µM
SK-MEL-2 melanoma
  TGI: 39.5 µM
ACHN renal
  TGI: 29.6 µM
UACC-62 melanoma
  TGI: 30.2 µM
IGROV1 ovarian
  TGI: 35.3 µM
OVCAR-3 ovarian
  TGI: 30.4 µM
HOP-62 NSCLC
  TGI: 79.3 µM
NCI-H23 lung
  TGI: 32.8 µM
OVCAR-4 ovarian
  TGI: 32.9 µM
EKVX NSCLC
  TGI: 39 µM
MDA-MB-231 breast
  TGI: 30.4 µM
SF-295 CNS
  TGI: > 100 µM
OVCAR-5 ovarian
  TGI: 31.9 µM
KM12 colon
  TGI: 32.7 µM
CAKI-1 renal
  TGI: 33.2 µM
OVCAR-8 ovarian
  TGI: 34.1 µM
NCI-H460 lung
  TGI: > 100 µM
HT29 colon
  TGI: 28.9 µM
HCC-2998 colon
  TGI: 27.5 µM
RXF 393 renal
  TGI: 35.5 µM
SN12C renal
  TGI: 34.5 µM
CCRF-CEM leukemia
  TGI: 66.8 µM
MOLT-4 leukemia
  TGI: 36.2 µM
UACC-257 melanoma
  TGI: 34 µM
MALME-3M melanoma
  TGI: 26.8 µM
SW-620 colon
  TGI: 36.8 µM
